Entries after “also recorded” stand apart in the source; their conditions may differ.
Assays:
p-tau [1] = target: T1, p-tau (Homo sapiens, UniProt P10636); assay: Thioflavin-S (ThS) fluorescence assay of p-tau fibril formation; assay type: biochemical; conditions: compound 100 μM, about 15x molar excess to p-tau
T1 construct: made in house
Procedure: p-Tau from the stock solution of 1 mM was added to 20 mM Tris buffer (pH 7.4) with 1 mM DTT and transferred to a black microplate 384 well plate with flat bottom and medium binding (greiner bio-one, ref 784076). Each well contained a final volume of 10 μL with a peptide final concentration of 6 μM. Experiments in the presence of p-tau were initiated by adding a solution of ThS at a final concentration of 20 μM with different compounds. Final compound concentrations ranged from 25 to 100 μM. The background sample consisted of 0.1% DMSO in buffer without p-tau. The plate was sealed and read with the excitation and emission wavelengths set at 440 and 490 nm, respectively, with a Synergy HT multi-mode microplate reader (BioTek, Winooski, VT). Measurements were taken at 37° C. every 10 min for 16 hours. Samples were measured in three replicates and the experiments were repeated three times using different p-tau stock solutions. For each time point, arbitrary units of fluorescence were calculated from the mean values normalized against the maximum value in each completed assay. Arbitrarily, the maximum value (100%) for the fluorescence intensity was established for p-tau with 0.1% DMSO.
The structure of three newly synthesized small molecules representing the sulfonamide (JF-19-73), sulfonylurea (JF(Tr)-20-58), and urea (JF-19-43, JF(TT)-19-5) series are presented in FIG. 1. These molecules were assessed for their anti-aggregation and cytoprotection effects using biophysical methods and survival assays on human neuroblastoma SH-SY5Y cells, respectively. […] First, the formation of fibrils was monitored by measuring the fluorescence intensity of the dye thioflavin-S (ThS) with the excitation and emission wavelengths set at 440 and 490 nm. The fluorescent dye ThS specifically binds to the cross β-sheet structure of protein fibrils, providing a strong fluorescence emission.^[14] Since the fluorescence emission increases with fibrils formation, the kinetic process of fibrillization is routinely assessed using ThS fluorescence as the primary assays to screen for the candidate inhibitors. […]

p-tau [2] = target: T1, p-tau; assay: Photo-induced cross-linking (PICUP) assay of p-tau oligomerization; assay type: biochemical; conditions: for dose dependence of inhibition of p-tau oligomerization: dose response experiments, FIG. 3 lower panel (B); for inhibition of p-tau oligomer formation (cross-linking): p-tau 6 μM preincubated with compound 50 μM for 24 hours
Procedure: p-Tau was diluted in 10 mM phosphate buffer (pH 7.4) at a final concentration of 10 μM and preincubated with different compounds for 24 h prior cross-linking. Different compounds were added to the p-tau solution at a final concentration of 12.5, 25, or 50 μM. The control consisted of samples without Ru(bpy), light exposition, and without compound. The reaction buffer consisted of 300 μM Ru(bpy), 6 mM ammonium persulfate. Prior light exposure, p-tau was diluted to a final concentration of 6 μM. Cross-linking was induced by irradiation, for 3 s, at a final volume of 20 μL, with a 53 W (120 V) incandescent lamp installed in a homemade dark-box. After irradiation, 8.3 μL of Lammeli loading buffer was immediately added to the solution, followed by incubation at 95° C. for 10 min. The cross-linked samples were separated on a 10% SDS-Page gel and visualized by Coomassie blue staining.
(§1) To examine how JF-19-73 affected p-tau fibrillization, two approaches were taken. Firstly, we used the Photo-Induced Cross-linking of Unmodified Proteins (PICUP) assay to investigate p-tau oligomerization under the influence of JF19-73 (FIG. 3). After being subjected to short light exposure, p-tau was cross-linked and resolved as a smear of higher molecular weight (lane 3, FIG. 3).^[6c] […] We further perform transmission electron microscopy to visualize the extent and morphology of p-tau fibrils.

SH-SY5Y cells = assay: Cell viability assay, protection from aggregated p-tau and compound toxicity; assay type: cell-based, human; conditions: for protection of SH-SY5Y cells against p-tau cytotoxicity: 0.8 μM p-tau, compound 8 μM (molar ratio 1:10)
Procedure: Cells were maintained in a 37° C., 5% CO2 incubator, in exponential growth, for the duration of experimentation. For this assay, cells were seeded in 96-well microtiter plates at a density of 5×10^3 SH-SY5Y cells per well for 24 h. Compounds freshly solubilized in DMSO were diluted in culture medium and aliquots containing sequential dilution of drugs were added subsequently after stimulation with 2 μM of p-tau. p-Tau was dissolved and incubated in 10 mM PBS (pH 7.4, 25° C.) 24 h before addition to cells. Compounds were tested at 2, 4, and 8 μM and DMSO concentration was maintained at 0.1% to avoid growth inhibition. […] Plates were incubated for 24 h in the presence of compounds and p-Tau. Cell-based assays were performed as previously described ((Liu et al, 2020, Sci. Rep. Hyperphosphorylated tau aggregation and cytotoxicity modulators screen identified prescription drugs linked to Alzheimer's disease and cognitive functions. Liu M, Dexheimer T, Sui D, Hovde S, Deng X, Kwok R, Bochar D A, Kuo M H. Sci Rep. 2020 Oct. 6; 10(1):16551. doi: 10.1038/s41598-020-73680-2.). The cell viability was calculated from fluorescence measured with a Synergy HT multi-mode microplate reader (BioTek, Winooski, VT). The data from experiments conducted in triplicate were corrected for the background fluorescence of the medium and was expressed as the mean percentage of fluorescence obtained for control DMSO-treated cells. The growth inhibition percentage was calculated with reference to DMSO-treated cells for each compound concentration. The results were obtained from at least three separated experiments. The cell viability assay was considered valid when the variability among data for a given set of conditions, within the same experiment, was less than 10% with respect to the mean value. All values represent means±SD (n=3).
Cell viability assays were performed using SH-SY5Y cells to evaluate the potential of the molecules representing the sulfonamide, sulfonylurea, and urea series to protect cells from aggregated p-tau (FIG. 5). The survival rate was assessed after treatment with 0.8 μM p-tau in the absence or the presence of JF-19-73, JF-19-43 (urea), JF(TT)-20-58 at 8 μM. […] It has been reported previously (Liu et al, 2020, Sci. Rep. Hyperphosphorylated tau aggregation and cytotoxicity modulators screen identified prescription drugs linked to Alzheimer's disease and cognitive functions. Liu M, Dexheimer T, Sui D, Hovde S, Deng X, Kwok R, Bochar D A, Kuo M H. Sci Rep. 2020 Oct. 6; 10(1):16551. doi: 10.1038/s41598-020-73680-2.) that not all effective p-tau aggregation inhibitors, as indicated by significant reductions in ThSmax, were cytoprotective.

[3] = Solubility in aqueous phase; assay type: physicochemical
p-tau [4] = target: T1, p-tau; assay: Transmission electron microscopy of p-tau fibrils; assay type: biochemical; conditions: p-tau 20 μM, compound 100 μM, 24 hours, vs. DMSO
Procedure: […] A volume of 10 μL was applied on a 400-mesh Formvar-carbon-coated cooper grid (Electron Microscopy Sciences, Hatfield, PA) to confirm the presence or the absence of fibrils. The grids were incubated for 1 minute and washed three times with distilled water. They were carefully air-dried and incubated for 1 minute in a fresh solution of 1% uranyl acetate. Samples were air-dried and observed using a transmission microscope (JEOL 1400 Flash, Japan). Pictures were acquired at an accelerating voltage of 100 kV and magnification of 40 and 80 k.
as §1

T1 sequence (P10636 1-412 isoform P10636-7): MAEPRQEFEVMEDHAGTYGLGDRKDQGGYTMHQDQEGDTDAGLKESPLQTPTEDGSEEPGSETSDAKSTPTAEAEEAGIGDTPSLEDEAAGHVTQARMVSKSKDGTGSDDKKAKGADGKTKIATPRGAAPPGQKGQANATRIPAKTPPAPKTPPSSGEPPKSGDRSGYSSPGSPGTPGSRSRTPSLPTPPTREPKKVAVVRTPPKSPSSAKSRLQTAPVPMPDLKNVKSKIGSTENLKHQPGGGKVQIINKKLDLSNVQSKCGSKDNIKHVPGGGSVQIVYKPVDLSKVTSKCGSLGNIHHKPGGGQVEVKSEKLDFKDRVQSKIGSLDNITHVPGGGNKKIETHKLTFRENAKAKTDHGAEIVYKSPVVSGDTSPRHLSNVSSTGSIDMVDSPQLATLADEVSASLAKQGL

| inhibition of p-tau oligomer formation (cross-linking) (p-tau [2]; listed as JF(T)-19-58) | inhibition of p-tau oligomer formation (cross-linking) (p-tau [2]; listed as JF19-43) | solubility (S) in aqueous phase [3] | SMILES | inhibition of p-tau fibril formation (ThS fluorescence intensity, ThSmax) (p-tau [1]) | dose dependence of inhibition of p-tau oligomerization (p-tau [2]) | inhibition of p-tau oligomer formation (cross-linking) (p-tau [2]) | protection of SH-SY5Y cells against p-tau cytotoxicity (SH-SY5Y cells) | p-tau fibril formation by TEM (p-tau [4]) | toxicity of compound to SH-SY5Y cells (SH-SY5Y cells; compound 8 μM without p-tau) | protection against p-tau cytotoxicity, dose dependence (SH-SY5Y cells; compound 2, 4 and 8 μM) |
| --- | --- | --- | --- | --- | --- | --- | --- | --- | --- | --- |
| – | – | – | O=C(Nc1ccc(Cl)cc1)Nc1ccc2c(c1)Cc1ccccc1-2 [JF(NBMI)-20-45] | not a potent inhibitor of p-tau aggregation | – | – | – | – | – | – |
| – | – | – | O=C(Nc1ccccc1)Nc1ccc2c(c1)Cc1ccccc1-2 [JF(TT)-19-5] | – | negative control | had no effect | – | – | – | – |
| had no effect | – | – | O=C(Nc1ccc2c(c1)Cc1ccccc1-2)NS(=O)(=O)c1ccc(Cl)cc1 [JF(TT)-20-58] | not a potent inhibitor of p-tau aggregation | – | high molecular weight p-tau oligomers | negative controls | – | – | – |
| – | high molecular weight p-tau oligomers | – | CCNC(=O)Nc1ccc2c(c1)Cc1ccccc1-2 [JF-19-43] | – | – | had no effect | negative controls | – | – | – |
| – | – | > 100 µM | O=S(=O)(Nc1ccc2c(c1)Cc1ccccc1-2)c1ccc(Cl)cc1 [JF-19-73] | inhibits fibril; also recorded: most potent to inhibit fibril formation | dose-dependent manner | inhibits fibril (ThSmax) and oligomer (Oligo. Inh.) formation; also recorded: stopped formation of p-tau oligomers; also recorded: effectively prevented this crosslinking | protects SH-SY5Y cells against p-tau | less fibrils; also recorded: clear effects on p-tau fibrillization | non-toxic to cells | protected cell in a dose-dependent manner |

From patent US20240376062A1, “COMPOUNDS FOR THE TREATMENT OF ALZHEIMER’S DISEASE” (BOARD OF TRUSTEES OF MICHIGAN STATE UNIVERSITY, priority 2021, published 2024)
